Assay results from patent US20080171783A1, “COMPOSITIONS AND METHODS FOR TREATING HYPERPROLIFERATIVE DISEASE” (Migenix Inc., priority 2006, published 2008).

Experiments:
BT-549 = assay: NCI In Vitro Cell Line Screening (SRB); assay type: cell-based, human; conditions: BT-549, Breast Cancer, 48 h; for GI50 / CC50: Homo sapiens; for CC50: read-out: LC50 (the source's name)
IGROV1 = assay: NCI In Vitro Cell Line Screening (SRB); assay type: cell-based; conditions: IGROV1, Ovarian Cancer, 48 h; for CC50: read-out: LC50 (the source's name)
human polymerase gamma = biological target: T1, human polymerase gamma (Homo sapiens, UniProt P54098); assay: Homotemplate enzymatic assay, polymerase gamma; assay type: biochemical; conditions: four concentrations, homotemplate format
T1 construct: purchased Replizyme Ltd., Heslington, York, UK
T1 sequence (P54098 1-1239): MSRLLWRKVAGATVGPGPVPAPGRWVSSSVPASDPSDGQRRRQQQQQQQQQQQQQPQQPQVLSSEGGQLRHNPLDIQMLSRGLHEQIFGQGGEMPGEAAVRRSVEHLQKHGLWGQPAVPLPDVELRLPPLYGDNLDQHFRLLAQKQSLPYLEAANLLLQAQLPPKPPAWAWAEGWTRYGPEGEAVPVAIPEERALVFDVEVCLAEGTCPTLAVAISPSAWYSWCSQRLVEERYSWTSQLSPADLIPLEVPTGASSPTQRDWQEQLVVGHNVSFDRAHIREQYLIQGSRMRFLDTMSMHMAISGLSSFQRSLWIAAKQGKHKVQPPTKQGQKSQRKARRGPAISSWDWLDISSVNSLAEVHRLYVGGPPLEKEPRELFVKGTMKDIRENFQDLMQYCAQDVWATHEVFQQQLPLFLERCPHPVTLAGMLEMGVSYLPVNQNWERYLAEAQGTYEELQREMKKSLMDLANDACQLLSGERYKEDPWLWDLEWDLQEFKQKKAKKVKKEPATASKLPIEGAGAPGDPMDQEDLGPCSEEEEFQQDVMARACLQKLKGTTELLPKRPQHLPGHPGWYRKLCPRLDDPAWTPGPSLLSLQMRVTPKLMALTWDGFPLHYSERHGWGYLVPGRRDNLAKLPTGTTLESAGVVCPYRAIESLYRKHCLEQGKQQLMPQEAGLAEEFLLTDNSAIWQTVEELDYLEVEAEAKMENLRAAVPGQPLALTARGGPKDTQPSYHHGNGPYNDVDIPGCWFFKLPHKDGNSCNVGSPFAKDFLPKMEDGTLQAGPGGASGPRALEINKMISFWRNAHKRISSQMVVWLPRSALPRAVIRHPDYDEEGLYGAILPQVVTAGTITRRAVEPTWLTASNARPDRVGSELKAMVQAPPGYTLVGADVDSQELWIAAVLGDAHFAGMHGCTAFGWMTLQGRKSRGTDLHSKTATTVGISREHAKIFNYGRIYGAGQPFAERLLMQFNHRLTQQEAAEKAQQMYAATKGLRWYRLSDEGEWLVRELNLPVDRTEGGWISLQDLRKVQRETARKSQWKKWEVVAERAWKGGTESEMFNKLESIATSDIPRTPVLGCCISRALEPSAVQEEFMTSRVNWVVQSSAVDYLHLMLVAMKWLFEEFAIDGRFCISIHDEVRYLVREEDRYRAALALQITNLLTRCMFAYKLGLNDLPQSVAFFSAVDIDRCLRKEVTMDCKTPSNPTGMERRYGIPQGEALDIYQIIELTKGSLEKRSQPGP
Description: (§1) To test for selectivity, an enzymatic assay of activity in human polymerase alpha and human polymerase gamma was performed using a homotemplate assay format (Replizyme Ltd., Heslington, York, UK). The IC50 was measured by testing four different concentrations of a selected compound as compared to an untreated control.

human polymerase alpha = biological target: T2, human polymerase alpha (Homo sapiens, UniProt P09884); assay: Homotemplate enzymatic assay, polymerase alpha; assay type: biochemical; conditions: four concentrations, homotemplate format
T2 construct: purchased Replizyme Ltd (Heslington, York, UK)
T2 sequence (P09884 1-1462): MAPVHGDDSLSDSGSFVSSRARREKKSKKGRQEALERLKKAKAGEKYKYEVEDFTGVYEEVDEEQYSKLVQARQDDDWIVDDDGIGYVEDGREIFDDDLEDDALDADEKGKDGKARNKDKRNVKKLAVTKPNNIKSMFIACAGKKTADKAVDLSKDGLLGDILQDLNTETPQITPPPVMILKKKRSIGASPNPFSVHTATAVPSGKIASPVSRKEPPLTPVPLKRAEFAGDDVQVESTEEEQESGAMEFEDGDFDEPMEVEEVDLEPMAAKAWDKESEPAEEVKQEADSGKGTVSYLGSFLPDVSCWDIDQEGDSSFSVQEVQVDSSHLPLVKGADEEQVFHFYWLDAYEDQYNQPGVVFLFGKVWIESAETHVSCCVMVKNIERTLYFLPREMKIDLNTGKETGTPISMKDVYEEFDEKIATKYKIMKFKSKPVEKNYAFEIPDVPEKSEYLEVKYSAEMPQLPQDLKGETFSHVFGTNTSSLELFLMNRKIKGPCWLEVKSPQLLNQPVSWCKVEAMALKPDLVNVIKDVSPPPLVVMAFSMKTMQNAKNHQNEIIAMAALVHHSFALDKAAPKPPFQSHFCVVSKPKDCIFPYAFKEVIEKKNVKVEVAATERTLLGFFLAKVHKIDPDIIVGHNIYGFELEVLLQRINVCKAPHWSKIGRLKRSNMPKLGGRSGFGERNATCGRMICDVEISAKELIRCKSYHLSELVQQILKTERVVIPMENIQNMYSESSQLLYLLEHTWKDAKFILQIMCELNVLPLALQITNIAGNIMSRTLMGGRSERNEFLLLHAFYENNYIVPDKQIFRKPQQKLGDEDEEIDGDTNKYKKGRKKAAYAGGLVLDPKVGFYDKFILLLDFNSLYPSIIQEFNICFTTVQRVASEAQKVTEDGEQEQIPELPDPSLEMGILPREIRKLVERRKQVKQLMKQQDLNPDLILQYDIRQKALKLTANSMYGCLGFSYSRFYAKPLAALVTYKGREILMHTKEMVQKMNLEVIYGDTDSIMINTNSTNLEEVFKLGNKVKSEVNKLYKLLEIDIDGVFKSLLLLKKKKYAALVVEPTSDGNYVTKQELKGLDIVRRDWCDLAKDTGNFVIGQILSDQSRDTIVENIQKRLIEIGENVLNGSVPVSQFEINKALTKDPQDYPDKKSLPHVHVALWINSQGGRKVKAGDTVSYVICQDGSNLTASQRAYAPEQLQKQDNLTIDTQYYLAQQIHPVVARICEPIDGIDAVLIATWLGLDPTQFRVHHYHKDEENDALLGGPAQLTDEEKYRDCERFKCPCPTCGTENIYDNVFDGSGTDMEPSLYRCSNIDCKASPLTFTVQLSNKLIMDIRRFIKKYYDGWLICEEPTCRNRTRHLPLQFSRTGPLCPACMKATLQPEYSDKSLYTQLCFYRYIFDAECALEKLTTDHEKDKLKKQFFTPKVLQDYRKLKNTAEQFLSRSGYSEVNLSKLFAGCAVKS
Description: as §1

SMILES	TGI (BT-549)	GI50 (BT-549)	CC50 (BT-549)	CC50 (IGROV1; Homo sapiens, IGROV-1)	TGI (IGROV1)	GI50 (IGROV1; Homo sapiens, IGROV-1)	IC50 (human polymerase gamma)	IC50 (human polymerase alpha)
CC(C)(C)c1ccc(NC(=O)[C@H](CCCCN)NC(=O)OCC2c3ccccc3-c3ccccc32)cc1 [Compound 105, (S)-[5-AMINO-1-(4-TERT-BUTYL-PHENYLCARBAMOYL)-PENTYL]-CARBAMIC ACID 9H-FLUOREN-9-YLMETHYL ESTER]	50.6 µM	25.3 µM	> 100 µM	6.97 µM	3.11 µM	–	–	–
Cc1ccc(NC(=O)[C@@H](CCCCN)NC(=O)Nc2ccc3c(c2)Cc2ccccc2-3)cc1 [Compound 173, (R)-6-AMINO-2-[3-(9H-FLUOREN-2-YL)-UREIDO]-HEXANOIC ACID P-TOLYLAMIDE]	26.9 µM	11.7 µM	61.6 µM	81 µM	17.9 µM	3.56 µM	16 µM	< 4 µM
Cc1ccc(NC(=O)[C@H](CCCCN)NC(=O)Nc2ccc(OCc3ccccc3)cc2)cc1 [Compound 2, (S)-6-AMINO-2-[3-(4-BENZYLOXY-PHENYL)-UREIDO]-HEXANOIC ACID P-TOLYLAMIDE]	–	–	–	–	–	–	27 µM	< 4 µM
Cc1cc2cc(NC(=O)[C@H](CCCNC(=O)CN)NC(=O)Nc3ccc4c(c3)Cc3ccccc3-4)ccc2[nH]1 [Compound 297, (S)-5-(2-AMINO-ACETYLAMINO)-2-[3-(9H-FLUOREN-2-YL)-UREIDO]-PENTANOIC ACID (2-METHYL-1H-INDOL-5-YL)-AMIDE]	–	–	–	–	–	–	13 µM	< 4 µM
COC(=O)c1ccc(COc2ccc(NC(=O)N[C@@H](CCCCN)C(=O)Nc3ccc(C)cc3)cc2)cc1 [Compound 199, (S)-4-{4-[3-(5-AMINO-1-P-TOLYLCARBAMOYL-PENTYL)-UREIDO]-PHENOXYMETHYL}-BENZOIC ACID METHYL ESTER]	–	–	–	–	–	–	32 µM	~4 µM
